{"source": "patent US20220265690A1", "about": "“USE OF SOTAGLIFLOZIN FOR THE TREATMENT OF PATIENTS WITH TYPE 2 DIABETES MELLITUS AND MODERATE RENAL IMPAIRMENT” (Lexicon Pharmaceuticals, Inc., priority 2019, published 2022)", "key": {"[1]": {"system": "patients with T2D and documented moderate renal insufficiency (CKD 3A, 3B)", "assay": "Multicentre, double-blind, placebo-controlled clinical study of sotagliflozin 200 mg and 400 mg once daily; HbA1c change at Week 26", "type": "in vivo", "conditions": "for HbA1c (%) Change from baseline to Week 26 LS Mean difference (SE) vs. placebo / HbA1c (%) Change from baseline to Week 26 LS Mean (SE) / HbA1c (%) Week 26 Mean (SD) / HbA1c (%) Week 26 Median: overall ITT population; for HbA1c (%) Change from baseline to Week 26 LS Mean (SE): ANCOVA, multiple imputation; for LS mean change in HbA1c from baseline to W26 / mean HbA1c level reached at W26: sotagliflozin 400 mg", "method": "The efficacy, relative to a placebo, […], was evaluated in multicentre, double-blind clinical with random distribution in three groups of treatment (group treated with sotagliflozin 200 mg daily dose, group treated with sotagliflozin 400 mg daily dose, and group treated with a placebo) of patients. The selected patients were adult patients with T2D (drug-naïve or on antidiabetic therapy) and documented moderate renal insufficiency defined by an eGFR (based on the 4 variable Modification of Diet in Renal Disease [MDRD] equation) of ≥30 and <60 mL/min/1.73 m^2 (CKD 3A, 3B). The study was conducted as follows: • Screening Phase—Visit 1 (up to 2 weeks) • Run-in phase (Visit 2), lasted 2 weeks. Patients were treated in a single-blind manner with two placebo tablets (identical to sotagliflozin 200 mg in appearance) administered once daily during the Run-in phase, starting from Visit 2 • Double-blind Treatment Period (Day 1 to Week 26): Eligible patients will be randomized on Day 1 (Visit 3). Following randomization, patients will be treated in a double-blind manner for 52 weeks. A total of 787 patients ≥18 years of age (or ≥legal age of the majority, whichever is greater) were randomly assigned 1:1:1 to the following 3 treatment groups: • Placebo, given as two (2) placebo tablets (identical to sotagliflozin 200 mg in appearance), once daily, before the first meal of the day • Sotagliflozin 200 mg, given as 2 tablets: 1 sotagliflozin 200 mg tablet and 1 placebo tablet (identical to sotagliflozin 200 mg in appearance), once daily • Sotagliflozin 400 mg, given as two (2) 200 mg tablets, once daily, before the first meal of the day. • Double-blind Extension Period (Week 27 to Week 52): • Follow-up Period Following the last dose of the IMP: a 4 week post-treatment visit to collect safety and some efficacy information. […] Efficacy analysis was based on the intent-to-treat (ITT) population using efficacy assessments obtained during the study, including those obtained after investigational medicinal product (IMP) discontinuation or introduction of rescue therapy. The ITT population consisted of all randomized patients. The primary efficacy endpoint was analyzed using an analysis of covariance (ANCOVA) model. The ANCOVA model included treatment groups (sotagliflozin 200 mg, sotagliflozin 400 mg, placebo), randomization stratum of HbA1c (≤8.5%, >8.5%), randomization stratum of SBP (<130, ≥130 mmHg), randomization stratum of CKD stage (3A, 3B), and country as fixed effects, and baseline HbA1c value as a covariate."}, "[2]": {"system": "patients with type 2 diabetes", "conditions": "phase II trials; cited from earlier work"}, "[3]": {"conditions": "sotagliflozin 200 mg once daily"}, "[4]": {"conditions": "sotagliflozin 400 mg once daily"}, "[5]": {"conditions": "sotagliflozin 400 mg once daily, listed as sotagliflozin"}}}
{"smiles": "CCOc1ccc(Cc2cc([C@@H]3O[C@H](SC)[C@@H](O)[C@H](O)[C@H]3O)ccc2Cl)cc1", "note": "[Sotagliflozin, sotagliflozin]", "values": [{"measurement": "HbA1c (%) Change from baseline to Week 26 LS Mean difference (SE) vs. placebo", "setting": "[1]; sotagliflozin 200 mg once daily, 95% CI (−0.244, 0.054), p-value 0.2129", "value": "−0.09 (0.076) %"}, {"measurement": "HbA1c (%) Change from baseline to Week 26 LS Mean (SE)", "setting": "[1]; [3]", "value": "−0.32 (0.060) %"}, {"measurement": "HbA1c (%) Week 26 Mean (SD)", "setting": "[1]; [3]", "value": "7.82 (0.99) %"}, {"measurement": "HbA1c (%) Week 26 Median", "setting": "[1]; [3]", "value": 7.70, "unit": "%"}, {"measurement": "HbA1c (%) Change from baseline to Week 26 LS Mean difference (SE) vs. placebo", "setting": "[1]; sotagliflozin 400 mg once daily, 95% CI (−0.382, −0.082), p-value 0.0024", "value": "−0.23 (0.076) %"}, {"measurement": "HbA1c (%) Change from baseline to Week 26 LS Mean (SE)", "setting": "[1]; [4]", "value": "−0.46 (0.060) %"}, {"measurement": "HbA1c (%) Change from baseline to Week 26 LS Mean (SE)", "setting": "[1]; [5]", "value": "−0.46", "unit": "%"}, {"measurement": "HbA1c (%) Week 26 Mean (SD)", "setting": "[1]; [4]", "value": "7.72 (1.00) %"}, {"measurement": "HbA1c (%) Week 26 Median", "setting": "[1]; [4]", "value": 7.60, "unit": "%"}, {"measurement": "HbA1c (%) Week 26 Mean (SD)", "setting": "[1]; [5]", "value": 7.72, "unit": "%"}, {"measurement": "LS mean change in HbA1c from baseline to W26", "setting": "[1]; CKD3A population", "value": "−0.54", "unit": "%"}, {"measurement": "mean HbA1c level reached at W26", "setting": "[1]; CKD3A population", "value": 7.62, "unit": "%"}, {"measurement": "LS mean change in HbA1c from baseline to W26", "setting": "[1]; CKD3B population", "value": "−0.37", "unit": "%"}, {"measurement": "mean HbA1c level reached at W26", "setting": "[1]; CKD3B population", "value": 7.82, "unit": "%"}, {"measurement": "glycemic control (reduction in A1C)", "setting": "[2]", "value": "significantly improve glycemic control"}]}
